Experimental data taken from US20250064992A1, “IMAGING METHOD FOR DESIGNER RECEPTOR, ANTAGONIST OR AGONIST, PHARMACEUTICAL, AND COMPANION DIAGNOSTIC AGENT” (priority 2018, published 2025).

Experiments:
[1] = biological target: T1, hM3D receptor (Homo sapiens, UniProt P20309, A239G/Y149C); test: 18F-FDG PET glucose metabolism, C22b 1 μg/kg versus solvent, one-way repeated measures ANOVA, hM3D in left amygdala; type: in vivo, monkey; conditions: Macaca mulatta
T1 construct: expressed in transfected cells; host or cells: neurons of the left amygdala of live Macaca mulatta, transduced with AAV2-CMV-hM3D
T1 sequence (P20309 whole entry Y149C/A239G, the tested form may be a part): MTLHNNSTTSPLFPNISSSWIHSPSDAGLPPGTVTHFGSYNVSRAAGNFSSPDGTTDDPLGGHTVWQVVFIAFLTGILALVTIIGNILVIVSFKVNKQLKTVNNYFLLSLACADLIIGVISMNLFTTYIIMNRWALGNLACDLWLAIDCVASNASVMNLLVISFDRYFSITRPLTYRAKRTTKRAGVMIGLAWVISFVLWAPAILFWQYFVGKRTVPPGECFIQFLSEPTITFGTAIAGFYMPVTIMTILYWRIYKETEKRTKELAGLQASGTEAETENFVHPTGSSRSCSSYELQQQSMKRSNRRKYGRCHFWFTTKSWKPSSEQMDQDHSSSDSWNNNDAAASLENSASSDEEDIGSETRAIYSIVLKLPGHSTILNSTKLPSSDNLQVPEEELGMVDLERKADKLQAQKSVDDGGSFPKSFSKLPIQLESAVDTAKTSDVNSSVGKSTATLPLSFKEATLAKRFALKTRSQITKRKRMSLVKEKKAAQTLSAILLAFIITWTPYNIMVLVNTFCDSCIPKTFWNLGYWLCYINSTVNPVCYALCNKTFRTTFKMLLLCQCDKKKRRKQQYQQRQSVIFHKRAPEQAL
Method: Then, the AAV vector was injected into Macaca mulatta different from in Example 3 (male, 3 kg) in the same manner as in Example 3. On the day 70 days after, a C22b compound solution (1 μg/kg) or a solvent was intravenously administered under isoflurane anesthesia, 1 minute later, ^18F-FDG (224 to 286 MBq) was intravenously administered, and then subjected to PET scanning for 120 minutes. The process was performed four times for each intravenous dose. Note that the solvent was the same as a solvent used for the C22b compound solution (solvent: 0.1 mL/kg of saline containing 1% dimethyl sulfoxide and 5% Tween 20 (surfactant)).
A glucose metabolism image (whole brain activity) when an average of the whole brain was determined as 100% was created from PET data integrated from 30 minutes to 60 minutes after the administration. Then, a site in which the C22b administration caused a statistically significant change compared to a solvent administration was analyzed by one-way repeated measures ANOVA using MATLAB (R2016a) and SPM12.

[2] = biological target: T1, hM3D receptor; test: 18F-FDG PET glucose metabolism image after C22b 0.1 mg/kg, hM3D expressed in left amygdala; type: in vivo; conditions: Macaca mulatta
Method: On the day 65 days after the AAV vector was injected, a C22b compound (0.1 mg/kg) was intravenously administered to the same Macaca mulatta as in Example 3 under isoflurane anesthesia, 1 minute later, ^18F-FDG (263 MBq) was intravenously administered, and then subjected to PET scanning for 90 minutes. Note that, here, the C22b compound was HY-42110 (manufactured by MedChem Express) which was the compound represented by Formula (III) in which R^1 was methyl, X was imino, and R^2 was hydrogen.
A glucose metabolism image (whole Brain Activity) when an average in the whole brain was determined as 100% was created from PET data integrated for 90 minutes.

[3] = test system: hM3D receptor; test: PET imaging with radiolabeled tracer, ligand binding potential image (cerebellum as reference region), hM3D expressed in left amygdala; type: in vivo; conditions: Macaca mulatta, PET 90 minutes, cerebellum BP determined as 1, non-injection region
Method: (§1) The head of Macaca mulatta (male/4.2 kg) was fixed to a stereotaxic instrument under general anesthesia, 3 μL of an adeno-associated virus (AAV) vector (AAV2-CMV-hM3D) for expressing an hM3D receptor in a nerve cell-specific manner was injected for 12 minutes by a Hamilton syringe (10 μL) into a middle portion of the left amygdala read from a magnetic resonance imaging (MRI) image taken in advance. Note that, here, the CMV was a promotor for gene expression.
(§2) On the day 57 days after the injection, the [^11C]C22b (277 MBq) serving as a radiolabeled tracer was intravenously administered under isoflurane anesthesia and subjected to PET scanning for 90 minutes.
(§3) An image of a ligand binding potential was created from PET data integrated for 90 minutes using the cerebellum as a reference region (the binding potential (BP) of the cerebellum was determined as 1). A portion shown by an arrow in FIG. 6 represents the left amygdala into which the AAV vector has been injected.

[4] = biological target: T1, hM3D receptor; test: as above; type: in vivo; conditions: Macaca mulatta
Method: as §1, §2, §3

[5] = biological target: T2, hM4D receptor (Homo sapiens, UniProt P08173, A203G/Y113C); conditions: Japanese macaque; for Selectivity (expressed region/unexpressed region): hM4D, ratio of tracer amount per volume; for hM4D-expressed region amount of uptake of tracer: right putamen, PET 30 to 90 minutes after administration
Method: (§4) The [^11C]C22b (Example 2) and [^11C]clozapine ([^11C]CLZ, Comparative Example 1) were compared for a property of visualizing hM4D expressed in the Japanese macaque used in Example 1. The hM4D receptor was expressed in the same manner as in Example 1.
(§5) An average image integrated from 30 to 90 minutes after administration of a tracer was created based on a standardized uptake value (SUV) and an amount of uptake in the brain was calculated from PET imaging taken from 30 to 90 minutes after the administration in the frontal plane including the right putamen in which the hM4D was expressed.

[6] = test system: hM4D receptor; conditions: Japanese macaque, PET 30 to 90 minutes after administration; for Whole brain amount of uptake of tracer: SUV; for Control region (hM4D-unexpressed region) amount of uptake of tracer: left putamen
Method: as §4, §5

[7] = test system: hM3D receptor; type: in vivo; conditions: Macaca mulatta
Method: as §1, §2

[8] = biological target: T1, hM3D receptor; type: in vivo; conditions: Macaca mulatta
Method: as §1, §2

[9] = test system: hM4D receptor; test: PET imaging with radiolabeled tracer, ligand binding potential image (cerebellum as reference region), hM4D expressed in right putamen; type: in vivo; conditions: Japanese macaque, PET 90 minutes, cerebellum BP determined as 1, non-injection region
Method: as §1, with “Japanese macaque (male/5.5” for “Macaca mulatta (male/4.2”, “and 6” for “3”, “(AAV2-CMV-hM4D)” for “(AAV2-CMV-hM3D)”, “hM4D” for “hM3D”, “right putamen” for “left amygdala”
(§6) On the day 427 days after the injection, a compound represented by Formula (II) (hereinafter may be referred to as [^11C]C22b) (364 MBq) serving as a radiolabeled tracer was intravenously administered under isoflurane anesthesia and subjected to PET scanning for 90 minutes.
(§7) An image of a ligand binding potential was created from PET data integrated for 90 minutes using the cerebellum as a reference region (the binding potential (BP) in the cerebellum was determined as 1).

[10] = biological target: T2, hM4D receptor; test: as above; type: in vivo; set-up: expressed in transfected cells; host or cells: neurons of the right putamen of a live Japanese macaque, transduced with AAV2-CMV-hM4D; conditions: Japanese macaque
Method: as §1, with “Japanese macaque (male/5.5” for “Macaca mulatta (male/4.2”, “and 6” for “3”, “(AAV2-CMV-hM4D)” for “(AAV2-CMV-hM3D)”, “hM4D” for “hM3D”, “right putamen” for “left amygdala”
as §6, §7

[11] = biological target: T3, hM4D (Homo sapiens, UniProt P08173, A203G/Y113C); test: PET imaging of axon terminal (substantia nigra pars reticulata), projection target of hM4D-expressing nerve cell in right putamen; type: in vivo; conditions: Japanese macaque, PET average image 30 to 90 minutes after tracer
T3 construct: expressed in transfected cells; host or cells: neurons of the right putamen of a live Japanese macaque, transduced with AAV2-CMV-hM4D
T3 sequence (P08173 1-479 Y113C/A203G): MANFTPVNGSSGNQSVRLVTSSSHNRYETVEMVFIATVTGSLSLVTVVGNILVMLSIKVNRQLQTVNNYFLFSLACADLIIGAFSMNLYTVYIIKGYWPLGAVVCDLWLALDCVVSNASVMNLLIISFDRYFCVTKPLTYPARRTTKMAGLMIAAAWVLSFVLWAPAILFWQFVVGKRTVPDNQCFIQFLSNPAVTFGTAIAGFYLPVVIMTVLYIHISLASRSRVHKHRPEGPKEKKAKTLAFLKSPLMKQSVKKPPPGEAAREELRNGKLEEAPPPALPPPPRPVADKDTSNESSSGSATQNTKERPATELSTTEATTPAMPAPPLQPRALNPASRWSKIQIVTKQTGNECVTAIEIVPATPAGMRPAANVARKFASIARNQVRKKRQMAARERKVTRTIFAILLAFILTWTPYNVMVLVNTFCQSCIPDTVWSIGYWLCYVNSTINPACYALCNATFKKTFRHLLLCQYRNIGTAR
Method: (§8) Specifically, the [^11C]C22b was exogenously administered as a tracer in the same manner as in Example 1 and subjected to PET scanning for 90 minutes.
(§9) Specifically, the compound represented by […] ([^11C]C22b) was exogenously administered as a tracer and subjected to PET scanning for 90 minutes.

[12] = test system: hM4D; test: as above; type: in vivo; conditions: Japanese macaque, PET average image 30 to 90 minutes after tracer
Method: as §8, §9

Row | Structure (SMILES) | t-value for the AAV vector injected region (one-way repeated measures ANOVA) ([1]; C22b 1 μg/kg i.v. vs solvent, left amygdala) | glucose metabolism activity in left amygdala, C22b versus solvent administration ([1]; C22b 1 μg/kg i.v., 18F-FDG PET 30 to 60 minutes, uncorrected p<0.001) | glucose metabolism in left amygdala (AAV injected) relative to control region (right amygdala) ([2]; C22b 0.1 mg/kg i.v., 18F-FDG PET 90 minutes) | action at hM3D receptor ([2]; glucose metabolism activated in hM3D-expressing left amygdala) | binding potential in control region (right amygdala) [3] | binding potential in the left amygdala into which the AAV vector had been injected ([4]; i.v. tracer 277 MBq, PET 90 minutes, cerebellum BP determined as 1, hM3D-expressed region) | binding potential of injected region relative to non-injection region ([4]; left amygdala (hM3D) vs right amygdala) | Selectivity (expressed region/unexpressed region) [5] | hM4D-expressed region amount of uptake of tracer [5] | Whole brain amount of uptake of tracer [6] | Control region (hM4D-unexpressed region) amount of uptake of tracer [6] | Whole brain amount of uptake of tracer [7] | Control region (hM3D-unexpressed region) amount of uptake of tracer ([7]; opposite region) | Selectivity (expressed region/unexpressed region) ([8]; hM3D, ratio of tracer amount per volume) | hM3D-expressed region amount of uptake of tracer ([8]; left amygdala) | binding potential in control region (left putamen) [9] | binding potential in the right putamen into which the AAV vector had been injected ([10]; i.v. tracer 364 MBq, PET 90 minutes, cerebellum BP determined as 1, hM4D-expressed region) | binding potential of injected region relative to non-injection region ([10]; right putamen (hM4D) vs left putamen) | visualisation of hM4D in the axon terminal (substantia nigra pars reticulata) [11] | binding to other nerve cells or brain tissues (off-target) [12]
1 | CN1CCN(C2=Nc3ccccc3Nc3ccccc32)CC1 [C22b] | > 5.2 | significantly high | 1.88 times | acted as an agonist | – | – | – | – | – | – | – | – | – | – | – | – | – | – | – | –
2 | [11CH3]N1CCC(C2=Nc3ccccc3Nc3ccccc32)CC1 [[^11C]C22b] | – | – | – | – | 0.31 | 1.05 | 3.4 times | 2.31 | 6.32 g/cc | 2.47 g/cc | 2.74 g/cc | 2.42 g/cc | 2.60 g/cc | 1.45 | 3.77 g/cc | 0.28 | 3.07 | 11 times | hM4D was confirmed to be expressed in the axon terminal | –
3 | CN1CCN(C2=Nc3cc(Cl)ccc3Nc3ccccc32)CC1 [[^11C]clozapine, [^11C]8-chloro-11-(4-methylpiperazine-1-yl)-5H-dibenzo[b,e] [1,4]diazepine, reference compound] | – | – | – | – | – | – | – | 1.25 | 5.73 g/cc | 3.24 g/cc | 4.57 g/cc | – | – | – | – | – | – | – | hM4D was confirmed to be expressed in the axon terminal | also allowed to bind to nerve cells other than the nerve cell of interest or brain tissues to some extent
